This is an account of results in ChEMBL document CHEMBL1139998, “Design, synthesis, and binding studies of bidentate Zn-chelating peptidic inhibitors of glyoxalase-I” (Bioorg Med Chem Lett, 2007).

This experiment addresses T1, Glyoxalase I (Saccharomyces cerevisiae S288c, UniProt P50107).
T1 sequence (P50107 whole entry): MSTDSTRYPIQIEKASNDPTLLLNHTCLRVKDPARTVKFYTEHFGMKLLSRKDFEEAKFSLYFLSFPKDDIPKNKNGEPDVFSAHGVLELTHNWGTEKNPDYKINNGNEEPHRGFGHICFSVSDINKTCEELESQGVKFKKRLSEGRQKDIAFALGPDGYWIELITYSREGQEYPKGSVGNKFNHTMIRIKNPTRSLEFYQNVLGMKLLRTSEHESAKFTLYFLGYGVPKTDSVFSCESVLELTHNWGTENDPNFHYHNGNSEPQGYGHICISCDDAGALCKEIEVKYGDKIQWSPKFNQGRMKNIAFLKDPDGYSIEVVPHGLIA
Kind of experiment: Inhibition of yeast glyoxalase 1.

Compound `N[C@@H](CCC(=O)N[C@@H](CCC(=O)CC(=O)OCc1ccc(Br)cc1)C(=O)NCC(=O)O)C(=O)O` showed a Ki of 66.9 µM. In other words, the double-digit micromolar range. For `COC(=O)CC(=O)CC[C@H](NC(=O)CC[C@H](N)C(=O)O)C(=O)NCC(=O)O` the value was 112 µM.

As a reminder, the Ki is a measure of affinity in units of concentration, obtained from inhibition or displacement. A high value points to weaker binding.
